# From ChEMBL document CHEMBL1139379, “Design, structure-activity relationships and in vivo characterization of 4-amino-3-benzimidazol-2-ylhydroquinolin-2-ones: a novel class of receptor tyrosine kinase inhibitors” (J Med Chem, 2009)
# Assays:
# [1] = Inhibition of VEGF-mediated proliferation of HMVEC after 72 hrs; type: functional, cell-based; details: Homo sapiens
# [2] = target: Fibroblast growth factor receptor 1 (Homo sapiens, UniProt P11362); assay: Inhibition of human recombinant FGFR1
# [3] = target: Vascular endothelial growth factor receptor 2 (Homo sapiens, UniProt P35968)
# [4] = target: Platelet-derived growth factor receptor beta (Homo sapiens, UniProt P09619); assay: Inhibition of human recombinant PDGFRbeta
# Sequence of Platelet-derived growth factor receptor beta (P09619 whole entry): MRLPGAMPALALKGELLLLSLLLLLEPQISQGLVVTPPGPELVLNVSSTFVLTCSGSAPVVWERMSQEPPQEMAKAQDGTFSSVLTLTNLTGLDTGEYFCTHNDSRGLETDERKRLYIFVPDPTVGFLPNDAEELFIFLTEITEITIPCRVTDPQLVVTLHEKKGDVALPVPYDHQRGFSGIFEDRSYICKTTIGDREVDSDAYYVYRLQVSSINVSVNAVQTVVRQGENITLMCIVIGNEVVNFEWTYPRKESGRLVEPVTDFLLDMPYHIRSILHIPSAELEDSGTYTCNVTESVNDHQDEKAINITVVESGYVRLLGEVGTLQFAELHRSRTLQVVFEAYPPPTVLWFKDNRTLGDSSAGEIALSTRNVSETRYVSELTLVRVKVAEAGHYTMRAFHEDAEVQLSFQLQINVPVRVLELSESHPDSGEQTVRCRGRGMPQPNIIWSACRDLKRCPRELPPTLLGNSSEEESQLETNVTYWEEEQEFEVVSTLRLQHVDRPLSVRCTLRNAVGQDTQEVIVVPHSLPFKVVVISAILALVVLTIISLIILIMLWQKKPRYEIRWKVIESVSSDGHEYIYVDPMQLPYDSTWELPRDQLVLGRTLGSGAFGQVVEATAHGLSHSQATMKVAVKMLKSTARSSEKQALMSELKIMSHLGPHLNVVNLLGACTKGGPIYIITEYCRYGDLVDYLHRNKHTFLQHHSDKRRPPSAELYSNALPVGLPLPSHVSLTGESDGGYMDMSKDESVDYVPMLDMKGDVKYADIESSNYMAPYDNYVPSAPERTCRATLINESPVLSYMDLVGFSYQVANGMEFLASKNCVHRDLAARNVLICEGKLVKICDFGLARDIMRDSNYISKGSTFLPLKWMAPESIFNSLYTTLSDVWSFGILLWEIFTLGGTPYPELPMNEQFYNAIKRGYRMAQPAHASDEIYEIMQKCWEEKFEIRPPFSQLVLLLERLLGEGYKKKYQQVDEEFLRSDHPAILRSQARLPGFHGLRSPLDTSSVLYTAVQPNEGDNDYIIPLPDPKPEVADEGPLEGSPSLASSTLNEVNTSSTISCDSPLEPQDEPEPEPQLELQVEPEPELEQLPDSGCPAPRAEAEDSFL
# Sequence of Fibroblast growth factor receptor 1 (P11362 whole entry): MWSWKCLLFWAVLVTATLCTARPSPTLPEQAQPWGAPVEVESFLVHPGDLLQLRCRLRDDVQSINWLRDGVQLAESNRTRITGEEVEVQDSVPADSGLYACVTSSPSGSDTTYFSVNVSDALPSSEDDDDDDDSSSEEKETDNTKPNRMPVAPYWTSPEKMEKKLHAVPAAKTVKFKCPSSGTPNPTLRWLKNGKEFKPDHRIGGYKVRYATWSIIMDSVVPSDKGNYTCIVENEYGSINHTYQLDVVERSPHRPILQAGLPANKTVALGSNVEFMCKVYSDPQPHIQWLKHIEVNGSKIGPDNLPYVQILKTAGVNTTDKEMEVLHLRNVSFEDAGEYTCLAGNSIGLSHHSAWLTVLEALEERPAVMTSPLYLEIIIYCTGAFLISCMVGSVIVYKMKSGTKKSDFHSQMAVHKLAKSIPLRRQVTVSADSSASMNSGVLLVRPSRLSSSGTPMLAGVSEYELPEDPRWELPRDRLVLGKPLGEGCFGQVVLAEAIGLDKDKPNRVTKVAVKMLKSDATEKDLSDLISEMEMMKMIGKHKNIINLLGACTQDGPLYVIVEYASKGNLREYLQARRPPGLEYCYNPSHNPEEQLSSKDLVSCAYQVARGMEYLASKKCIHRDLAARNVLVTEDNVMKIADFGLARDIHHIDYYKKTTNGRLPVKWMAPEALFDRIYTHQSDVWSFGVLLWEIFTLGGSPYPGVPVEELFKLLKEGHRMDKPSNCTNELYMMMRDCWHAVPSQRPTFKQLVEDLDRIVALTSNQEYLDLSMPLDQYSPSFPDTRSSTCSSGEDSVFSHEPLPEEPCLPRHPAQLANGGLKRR
# Sequence of Vascular endothelial growth factor receptor 2 (P35968 whole entry): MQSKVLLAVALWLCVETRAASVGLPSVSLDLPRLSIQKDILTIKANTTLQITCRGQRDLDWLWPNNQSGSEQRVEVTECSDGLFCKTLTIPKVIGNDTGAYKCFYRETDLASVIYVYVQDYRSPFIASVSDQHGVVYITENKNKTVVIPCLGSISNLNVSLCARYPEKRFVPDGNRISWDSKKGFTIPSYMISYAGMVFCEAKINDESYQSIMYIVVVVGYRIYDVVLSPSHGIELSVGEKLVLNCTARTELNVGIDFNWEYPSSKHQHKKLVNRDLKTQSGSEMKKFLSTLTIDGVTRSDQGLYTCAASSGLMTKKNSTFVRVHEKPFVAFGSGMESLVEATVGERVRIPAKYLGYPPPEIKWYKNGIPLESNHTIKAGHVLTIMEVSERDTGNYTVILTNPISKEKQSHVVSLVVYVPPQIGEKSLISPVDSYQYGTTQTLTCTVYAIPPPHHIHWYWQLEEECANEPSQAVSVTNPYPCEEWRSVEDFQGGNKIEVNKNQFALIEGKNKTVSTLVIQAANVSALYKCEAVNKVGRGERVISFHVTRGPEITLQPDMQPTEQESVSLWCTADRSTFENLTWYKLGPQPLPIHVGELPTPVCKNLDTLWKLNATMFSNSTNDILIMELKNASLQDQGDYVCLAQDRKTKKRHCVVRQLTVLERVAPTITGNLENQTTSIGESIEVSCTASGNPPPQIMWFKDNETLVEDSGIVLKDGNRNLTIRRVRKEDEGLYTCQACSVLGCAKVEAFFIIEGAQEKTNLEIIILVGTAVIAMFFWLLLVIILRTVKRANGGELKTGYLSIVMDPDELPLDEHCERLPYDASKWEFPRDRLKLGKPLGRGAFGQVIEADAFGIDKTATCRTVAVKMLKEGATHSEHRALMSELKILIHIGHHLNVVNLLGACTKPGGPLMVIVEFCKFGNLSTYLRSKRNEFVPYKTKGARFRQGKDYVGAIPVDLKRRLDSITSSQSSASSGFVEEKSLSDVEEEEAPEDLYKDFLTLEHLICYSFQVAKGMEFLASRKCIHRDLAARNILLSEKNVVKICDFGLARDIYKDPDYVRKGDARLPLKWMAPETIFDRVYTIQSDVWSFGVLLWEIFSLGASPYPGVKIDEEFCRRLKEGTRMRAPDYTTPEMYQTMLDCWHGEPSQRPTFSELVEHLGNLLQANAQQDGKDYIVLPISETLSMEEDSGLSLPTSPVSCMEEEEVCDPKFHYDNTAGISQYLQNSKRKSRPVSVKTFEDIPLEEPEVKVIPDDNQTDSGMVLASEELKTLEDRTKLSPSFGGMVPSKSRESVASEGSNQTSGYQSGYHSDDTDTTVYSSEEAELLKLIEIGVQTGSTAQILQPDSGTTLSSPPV
Compound,IC50 [2] [µM],IC50 [3] [µM],IC50 [4] [µM],EC50 [1] [µM]
Nc1c(-c2nc3cc(N4CCOCC4)ccc3[nH]2)c(=O)[nH]c2ccccc12,0.03,0.057,0.005,0.051
CN1CCN(c2ccc3[nH]c(-c4c(N)c5ccccc5[nH]c4=O)nc3c2)CC1,0.009,0.042,0.002,0.019
CNc1ccc2c(N)c(-c3nc4ccc(N5CCN(C)CC5)cc4[nH]3)c(=O)[nH]c2c1,0.37,1,0.009,0.27
CN1CCN(c2ccc3[nH]c(-c4c(N)c5cc(N(C)C)ccc5[nH]c4=O)nc3c2)CC1,0.083,0.16,0.007,2
CN1CCN(c2ccc3[nH]c(-c4c(N)c5cc(NC(=O)c6ccccc6)ccc5[nH]c4=O)nc3c2)CC1,0.9,0.98,0.039,–
CN1CCN(c2ccc3nc(-c4c(N)c5cc(NCc6ccccc6)ccc5[nH]c4=O)[nH]c3c2)CC1,0.008,0.021,0.0006,1.1
CN1CCCC(Oc2cccc3[nH]c(=O)c(-c4nc5ccccc5[nH]4)c(N)c23)C1 (stereo unspecified),0.001,0.005,0.0001,0.01
CN1CCN(c2ccc3[nH]c(-c4c(N)c5c(Cl)cccc5[nH]c4=O)nc3c2)CC1,0.002,0.014,0.0003,0.012
Cc1cccc2[nH]c(=O)c(-c3nc4ccc(N5CCN(C)CC5)cc4[nH]3)c(N)c12,0.003,0.012,0.0007,0.005
CN1CCN(Cc2ccc3[nH]c(-c4c(N)c5ccccc5[nH]c4=O)nc3c2)CC1,0.009,–,0.002,–
CN(C)CC(=O)N(C)c1ccc2[nH]c(-c3c(N)c4ccccc4[nH]c3=O)nc2c1,0.003,0.029,0.001,0.024
CCC1CCN(C)C(Nc2c(-c3nc4ccccc4[nH]3)c(=O)[nH]c3ccccc23)C1 (stereo unspecified),0.19,0.17,0.0002,0.072
CN(C)[C@H]1CCN(c2ccc3[nH]c(-c4c(N)c5ccccc5[nH]c4=O)nc3c2)C1,0.02,0.06,0.004,0.042

# Further lines, with some results ahead:
IC50 [2] [µM],IC50 [3] [µM],IC50 [4] [µM],Compound,EC50 [1] [µM]
0.39,1.7,0.07,O=c1[nH]c2ccccc2cc1-c1nc2ccccc2[nH]1,0.24
0.09,0.24,0.02,O=c1[nH]c2ccccc2c(O)c1-c1nc2ccccc2[nH]1,0.42
0.03,0.058,0.01,Nc1c(-c2nc3ccccc3[nH]2)c(=O)[nH]c2ccccc12,0.078
4.1,6.5,0.13,CN1CCN(c2ccc3[nH]c(=O)c(-c4nc5ccccc5[nH]4)c(N)c3c2)CC1,–
0.39,0.86,0.07,CN(C)c1c(-c2nc3ccccc3[nH]2)c(=O)[nH]c2ccccc12,> 10
7.9,> 25,1.1,Cn1c(-c2c(O)c3ccccc3[nH]c2=O)nc2ccccc21,> 10
> 25,> 25,> 25,Cn1c(-c2c(O)c3ccccc3n(C)c2=O)nc2ccccc21,> 10
